From patent US11370798B2 (Vertex Pharmaceuticals Incorporated, priority 2012, dated 2022)

tested on: HCT116 colorectal cancer cells; experiment: Cisplatin sensitization assay (96 h cell viability MTS); type: cell-based; conditions: compound and Cisplatin added simultaneously, Cisplatin sensitization value;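 further: Test-compound concentration that lowers the Cisplatin IC50 by a set fold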
Summary of the method: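 Viability read by MTS (1 h at 37° C) after 96 h co-exposure at 37° C, 5% CO2. Test compound and cisplatin were dosed simultaneously in a full concentration matrix, each 2-fold serially diluted from 10 μM final; sensitization values binned in μM.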

| Compound | Cisplatin Sensitization Assay |
| --- | --- |
| Cn1nncc1-c1ccncc1NC(=O)c1c(N)nn2cc(F)cnc12 [I-C-72, 2-amino-6-fluoro-N-(4-(1-methyl-1H-1,2,3-triazol-5-yl)pyridin-3-yl)pyrazolo[1,5-a]pyrimidine-3-carboxamide] | +++ (Cisplatin sensitization value of <0.02 μM) |
| N#CCc1cnc2c(C(=O)Nc3cnccc3OC3CCOCC3)c(N)nn2c1 [I-O-30, 2-amino-6-(cyanomethyl)-N-(4-((tetrahydro-2H-pyran-4-yl)oxy)pyridin-3-yl)pyrazolo[1,5-a]pyrimidine-3-carboxamide] | +++ (Cisplatin sensitization value of <0.02 μM) |
| N#CCc1cnc2c(C(=O)Nc3cnccc3N3CCCC3)c(N)nn2c1 [I-N-77, 2-amino-6-(cyanomethyl)-N-(4-(pyrrolidin-1-yl)pyridin-3-yl)pyrazolo[1,5-a]pyrimidine-3-carboxamide] | + (Cisplatin sensitization value>0.2 μM but <5 μM) |
| CN(C)CCOc1cc(Cl)ncc1NC(=O)c1c(N)nn2cc(Cl)cnc12 [I-O-68, 2-amino-6-chloro-N-(6-chloro-4-(2-(dimethylamino)ethoxy)pyridin-3-yl)pyrazolo[1,5-a]pyrimidine-3-carboxamide] | ++ (Cisplatin sensitization value>0.02 μM but <0.2 μM) |
| Cn1cncc1-c1c(F)cncc1NC(=O)c1c(N)nn2cc(F)cnc12 [I-C-79, 2-amino-6-fluoro-N-(5-fluoro-4-(1-methyl-1H-imidazol-5-yl)pyridin-3-yl)pyrazolo[1,5-a]pyrimidine-3-carboxamide] | +++ (Cisplatin sensitization value of <0.02 μM) |
| Nc1nn2cc(F)cnc2c1C(=O)Nc1cnccc1N1CCC(c2nnco2)CC1 [I-N-268, N-(4-(4-(1,3,4-oxadiazol-2-yl)piperidin-1-yl)pyridin-3-yl)-2-amino-6-fluoropyrazolo[1,5-a]pyrimidine-3-carboxamide] | +++ (Cisplatin sensitization value of <0.02 μM) |
| Cc1nc(N2CCN(C)CC2)ccc1-c1ccncc1NC(=O)c1c(N)nn2cc(F)cnc12 [I-C-40, 2-amino-6-fluoro-N-(2-methyl-6-(4-methylpiperazin-1-yl)-[3,4′-bipyridin]-3′-yl)pyrazolo[1,5-a]pyrimidine-3-carboxamide] | +++ (Cisplatin sensitization value of <0.02 μM) |
| CC(C)Oc1ccncc1NC(=O)c1c(N)nn2cc(CC#N)cnc12 [I-O-35, 2-amino-6-(cyanomethyl)-N-(4-isopropoxypyridin-3-yl)pyrazolo[1,5-a]pyrimidine-3-carboxamide] | +++ (Cisplatin sensitization value of <0.02 μM) |
| CN(C)CCN(C)C(=O)C1CCN(c2c(F)cncc2NC(=O)c2c(N)nn3cc(F)cnc23)CC1 [I-G-31, 2-amino-N-(4-(4-((2-(dimethylamino)ethyl)(methyl)carbamoyl)piperidin-1-yl)-5-fluoropyridin-3-yl)-6-fluoropyrazolo[1,5-a]pyrimidine-3-carboxamide] | +++ (Cisplatin sensitization value of <0.02 μM) |
| CN1CC[C@@H](OC2CCN(c3ccncc3NC(=O)c3c(N)nn4cc(F)cnc34)CC2)C1 [I-N-131] | +++ (Cisplatin sensitization value of <0.02 μM) |
| Nc1nn2cc(Cl)cnc2c1C(=O)Nc1cnccc1N1CCC(N)CC1 [I-N-86, 2-amino-N-(4-(4-aminopiperidin-1-yl)pyridin-3-yl)-6-chloropyrazolo[1,5-a]pyrimidine-3-carboxamide] | +++ (Cisplatin sensitization value of <0.02 μM) |
| Nc1nn2cc(Cl)cnc2c1C(=O)Nc1cnccc1OCCN1CCOCC1 [I-O-60, 2-amino-6-chloro-N-(4-(2-morpholinoethoxy)pyridin-3-yl)pyrazolo[1,5-a]pyrimidine-3-carboxamide] | ++ (Cisplatin sensitization value>0.02 μM but <0.2 μM) |
| Nc1nn2cc(Cl)cnc2c1C(=O)Nc1cnccc1N1CCC(N2CC[S+]([O-])CC2)CC1 [I-N-100, 2-amino-6-chloro-N-(4-(4-(1-oxidothiomorpholino)piperidin-1-yl)pyridin-3-yl)pyrazolo[1,5-a]pyrimidine-3-carboxamide] | ++ (Cisplatin sensitization value>0.02 μM but <0.2 μM) |
| Nc1nn2cc(F)cnc2c1C(=O)Nc1cncc(F)c1N1CCCC1 [I-N-246, 2-amino-6-fluoro-N-(5-fluoro-4-(pyrrolidin-1-yl)pyridin-3-yl)pyrazolo[1,5-a]pyrimidine-3-carboxamide] | ++ (Cisplatin sensitization value>0.02 μM but <0.2 μM) |
| Nc1nn2cc(F)cnc2c1C(=O)Nc1cnccc1N1CCN(S(=O)(=O)C2COC2)CC1 [I-N-195, 2-amino-6-fluoro-N-(4-(4-(oxetan-3-ylsulfonyl)piperazin-1-yl)pyridin-3-yl)pyrazolo[1,5-a]pyrimidine-3-carboxamide] | +++ (Cisplatin sensitization value of <0.02 μM) |
| Nc1nn2cc(F)cnc2c1C(=O)Nc1cncc(F)c1N1CCC(C(=O)N2CC(N3CCCC3)C2)CC1 [I-G-43, 2-amino-6-fluoro-N-(5-fluoro-4-(4-(3-(pyrrolidin-1-yl)azetidine-1-carbonyl)piperidin-1-yl)pyridin-3-yl)pyrazolo[1,5-a]pyrimidine-3-carboxamide] | +++ (Cisplatin sensitization value of <0.02 μM) |
| Cc1nc(F)ccc1-c1ccncc1NC(=O)c1c(N)nn2cc(F)cnc12 [I-C-34, 2-amino-6-fluoro-N-(6-fluoro-2-methyl-[3,4′-bipyridin]-3′-yl)pyrazolo[1,5-a]pyrimidine-3-carboxamide] | +++ (Cisplatin sensitization value of <0.02 μM) |
| CS(=O)(=O)C1CCN(c2c(F)cncc2NC(=O)c2c(N)nn3cc(F)cnc23)CC1 [I-N-165, 2-amino-6-fluoro-N-(5-fluoro-4-(4-(methylsulfonyl)piperidin-1-yl)pyridin-3-yl)pyrazolo[1,5-a]pyrimidine-3-carboxamide] | +++ (Cisplatin sensitization value of <0.02 μM) |
| Nc1nn2cc(Cl)cnc2c1C(=O)Nc1cnccc1N1CCN(C2CCC2)CC1 [I-N-48, 2-amino-6-chloro-N-(4-(4-cyclobutylpiperazin-1-yl)pyridin-3-yl)pyrazolo[1,5-a]pyrimidine-3-carboxamide] | ++ (Cisplatin sensitization value>0.02 μM but <0.2 μM) |
| Nc1nn2cc(F)cnc2c1C(=O)Nc1cnccc1-c1cccnc1 [I-C-15, N-([3,4′-bipyridin]-3′-yl)-2-amino-6-fluoropyrazolo[1,5-a]pyrimidine-3-carboxamide] | ++ (Cisplatin sensitization value>0.02 μM but <0.2 μM) |
| N#CCc1cnc2c(C(=O)Nc3cnccc3OC3CCNCC3)c(N)nn2c1 [I-O-84, 2-amino-6-(cyanomethyl)-N-(4-(piperidin-4-yloxy)pyridin-3-yl)pyrazolo[1,5-a]pyrimidine-3-carboxamide] | ++ (Cisplatin sensitization value>0.02 μM but <0.2 μM) |
| Nc1nn2cc(F)cnc2c1C(=O)Nc1cnccc1-c1ccc(C(=O)N2CCN(C3COC3)CC2)nc1 [I-C-52, 2-amino-6-fluoro-N-(6-(4-(oxetan-3-yl)piperazine-1-carbonyl)-[3,4′-bipyridin]-3′-yl)pyrazolo[1,5-a]pyrimidine-3-carboxamide] | ++ (Cisplatin sensitization value>0.02 μM but <0.2 μM) |
| CN(C)CCCOc1ccncc1NC(=O)c1c(N)nn2cc(Cl)cnc12 [I-O-52, 2-amino-6-chloro-N-(4-(3-(dimethylamino)propoxy)pyridin-3-yl)pyrazolo[1,5-a]pyrimidine-3-carboxamide] | + (Cisplatin sensitization value>0.2 μM but <5 μM) |
| Nc1nn2cc(F)cnc2c1C(=O)Nc1cnccc1-c1ccc(C(=O)N2CCNCC2)cc1 [I-C-44, 2-amino-6-fluoro-N-(4-(4-(piperazine-1-carbonyl)phenyl)pyridin-3-yl)pyrazolo[1,5-a]pyrimidine-3-carboxamide] | +++ (Cisplatin sensitization value of <0.02 μM) |
| CCN1CCN(C(=O)C2CCN(c3c(F)cncc3NC(=O)c3c(N)nn4cc(F)cnc34)CC2)CC1 [I-G-9, 2-amino-N-(4-(4-(4-ethylpiperazine-1-carbonyl)piperidin-1-yl)-5-fluoropyridin-3-yl)-6-fluoropyrazolo[1,5-a]pyrimidine-3-carboxamide] | +++ (Cisplatin sensitization value of <0.02 μM) |
| CN1CCC[C@H]1COc1ccncc1NC(=O)c1c(N)nn2cc(Cl)cnc12 [I-O-50, (S)-2-amino-6-chloro-N-(4-((1-methylpyrrolidin-2-yl)methoxy)pyridin-3-yl)pyrazolo[1,5-a]pyrimidine-3-carboxamide] | + (Cisplatin sensitization value>0.2 μM but <5 μM) |
| Nc1nn2cc(F)cnc2c1C(=O)Nc1cncc(F)c1N1CCC(N2CCCC2=O)CC1 [I-N-147, 2-amino-6-fluoro-N-(5-fluoro-4-(4-(2-oxopyrrolidin-1-yl)piperidin-1-yl)pyridin-3-yl)pyrazolo[1,5-a]pyrimidine-3-carboxamide] | +++ (Cisplatin sensitization value of <0.02 μM) |
| CC(C)N1CCC(C(=O)N2CCN(c3c(F)cncc3NC(=O)c3c(N)nn4cc(F)cnc34)CC2)C1 (stereo not drawn) [I-N-206, 2-amino-6-fluoro-N-(5-fluoro-4-(4-(1-isopropylpyrrolidine-3-carbonyl)piperazin-1-yl)pyridin-3-yl)pyrazolo[1,5-a]pyrimidine-3-carboxamide] | +++ (Cisplatin sensitization value of <0.02 μM) |
| C[C@H]1CN(C2COC2)CCN1c1ccncc1NC(=O)c1c(N)nn2cc(F)cnc12 [I-N-24, (S)-2-amino-6-fluoro-N-(4-(2-methyl-4-(oxetan-3-yl)piperazin-1-yl)pyridin-3-yl)pyrazolo[1,5-a]pyrimidine-3-carboxamide] | +++ (Cisplatin sensitization value of <0.02 μM) |
| Nc1nn2cc(F)cnc2c1C(=O)Nc1cnccc1O[C@H]1CCCN(C2COC2)C1 [I-O-9, (S)-2-amino-6-fluoro-N-(4-((1-(oxetan-3-yl)piperidin-3-yl)oxy)pyridin-3-yl)pyrazolo[1,5-a]pyrimidine-3-carboxamide] | ++ (Cisplatin sensitization value>0.02 μM but <0.2 μM) |
